{
  "source": "patent US8293726B2",
  "about": "“Treatment of cancer and other diseases” (Vianova Labs, Inc., priority 2005, dated 2012)",
  "key": {"[1]": {"system": "poorly differentiated lobular carcinoma of the right breast", "experiment": "Patient case: stage IV lobular breast carcinoma with liver, spleen and bone metastases", "type": "in vivo, human", "text": "A patient with a past medical history of anemia and mild chronic renal failure due to retroperitoneal fibrosis presented with a stage IV poorly differentiated lobular carcinoma of the right breast and liver, spleen and bone metastases. […] Three days after treatment, we observed a decrease in LDH level from 450 to 204."}, "[2]": {"system": "lung large-cell adenocarcinoma metastatic to liver", "experiment": "Patient case: lung large-cell adenocarcinoma metastatic to liver", "type": "in vivo, human", "set-up": "LDH: unit not given beside the values", "text": "A patient was diagnosed with a lung large-cell adenocarcinoma metastatic to liver. They received chemotherapy with no success. […] They also had frequent hemoptysis and elevated LDH, GGT, and bilirubin. The course of the patient's biologic parameters during treatment are depicted in Table 7."}, "[3]": {"system": "hormone resistant metastatic prostate cancer", "experiment": "Patient case: hormone resistant metastatic prostate cancer, PSA", "type": "in vivo, human", "text": "A patient presented with hormone resistant metastatic prostate cancer. They had previously been treated with three courses of chemotherapy (Navelbine+Taxotere, but their PSA was still increasing."}, "[4]": {"system": "human tumor cell line: squamous-cell carcinoma of the lung", "experiment": "Human tumor cell lines in immunocompromised mice (intraperitoneal, ascitis): squamous lung", "type": "in vivo", "conditions": "treated mice (4, 2 and 0.8 mg/kg/day orally for 10 days)", "protocol": "(§1) Immunocompromised mice were used for this experiment. Mice were inbred in a sterile environment and fed ad libitum. Four groups of 40 mice, weighing approximately 20 g each (range: 17-25 g), were used for each tumor type. The human tumor cell lines used were the following: large B-cell lymphoma; squamous-cell carcinoma of the lung; ductal carcinoma breast; and adenocarcinoma of the lung. A suspension of tumor cells was injected in the peritoneum of immunocompromised mice. Following this, mice were examined and weighed daily. After 6-8 days, we observed the development of abdominal carcinomatosis and […]. At day 18, we observed the development of an abundant […], which increased the weight of the mice by approximately 20 g. At that time, mice were divided into four groups of 10. […] Assessment of tumor cell concentration in the […] abdominal metastases were measured on day 18 and every 2 days thereafter. In all mice, prior to treatment, we observed an increase in LDH ESR (>100) and a decrease in the hematocrit. Control (untreated) mice all died between day 21 and day 25 in all tumor types. […] Complete response: Weight (and ascetic) loss and the disappearance of all abdominal metastatic nodules and tumor cells. Partial response: Weight (and ascitic) loss and at least 25% decrease of tumor cell in the […] least 25% decrease in measured abdominal metastatic nodules. […] Progressive disease: When we observed an increase in […] or tumor volume or death of the animal."}, "[5]": {"system": "human tumor cell line: ductal carcinoma breast", "experiment": "Human tumor cell lines in immunocompromised mice (intraperitoneal, ascitis): breast", "type": "in vivo", "conditions": "Breast CA; treated mice (4, 2 and 0.8 mg/kg/day orally for 10 days)", "protocol": "as §1"}, "[6]": {"system": "metastatic renal cell carcinoma (stage IV)", "experiment": "Patient case: metastatic renal cell carcinoma", "type": "in vivo, human", "conditions": "80 mg/day"}, "experimental lymphoma": {"system": "experimental lymphoma", "experiment": "Histological analysis of liver and kidneys of mice with experimental lymphoma", "type": "in vivo", "conditions": "mouse with experimental lymphoma, orally daily 250 mg/kg", "protocol": "FIGS. 11 and 12 are photomicrographs (450× and 900×, respectively) of part of the liver taken from a mouse with experimental lymphoma orally administered 24-ethyl-cholestane-3β,5α,6α-triol daily at a dosage of 250 mg/kg. Lymphocytic proliferation is insignificant.\nParenchymatous organs liver and kidneys received from mice with experimental lymphoma on the 15th day of observation and from mice treated with 24-ethyl-cholestane-3β,5α,6α-triol were taken for the histological analysis. Micropreparations were stained with hematoxilin eosin and examined by microscopy (FIGS. 9, 10, 11, and 12)."}, "[7]": {"system": "human tumor cell line: large B-cell lymphoma", "experiment": "Human tumor cell lines in immunocompromised mice (intraperitoneal, ascitis): lymphoma", "type": "in vivo", "conditions": "treated mice (4, 2 and 0.8 mg/kg/day orally for 10 days)", "protocol": "as §1"}, "[8]": {"system": "pancreatic adenocarcinoma", "experiment": "Patient case: pancreatic adenocarcinoma, CA 19-9", "type": "in vivo, human", "set-up": "CA 19-9: unit not given beside the values", "text": "A diabetic and insulin dependent patient with a past history of lymphoma presented with a 3 cm tumor in the head of pancreas and a suspicion of hepatic metastasis."}, "[9]": {"system": "human tumor cell line: adenocarcinoma of the lung", "experiment": "Human tumor cell lines in immunocompromised mice (intraperitoneal, ascitis): lung adenocarcinoma", "type": "in vivo", "conditions": "treated mice (4, 2 and 0.8 mg/kg/day orally for 10 days)", "protocol": "as §1"}, "human tumor cell lines": {"system": "human tumor cell lines", "experiment": "Human tumor cell lines in immunocompromised mice, general observations over all tumor types", "type": "in vivo", "protocol": "Immunocompromised mice were used for this experiment. Mice were inbred in a sterile environment and fed ad libitum. Four groups of 40 mice, weighing approximately 20 g each (range: 17-25 g), were used for each tumor type. The human tumor cell lines used were the following: large B-cell lymphoma; squamous-cell carcinoma of the lung; ductal carcinoma breast; and adenocarcinoma of the lung. A suspension of tumor cells was injected in the peritoneum of immunocompromised mice. Following this, mice were examined and weighed daily. After 6-8 days, we observed the development of abdominal carcinomatosis and […]. At day 18, we observed the development of an abundant […], which increased the weight of the mice by approximately 20 g. At that time, mice were divided into four groups of 10. […] Assessment of tumor cell concentration in the […] abdominal metastases were measured on day 18 and every 2 days thereafter. In all mice, prior to treatment, we observed an increase in LDH ESR (>100) and a decrease in the hematocrit. Control (untreated) mice all died between day 21 and day 25 in all tumor types."}},
  "data": [
    {"smiles": "CC[C@H](CC[C@@H](C)[C@H]1CC[C@H]2[C@@H]3C[C@H](O)[C@@]4(O)C[C@@H](O)CC[C@]4(C)[C@H]3CC[C@]12C)C(C)C", "note": "[24-ethyl-cholestane-3β,5α,6α-triol]", "values": [
      {"measurement": "CA 125", "setting": "[1]; After LC (five months), 60 mg/day, Before LC 125", "value": 69},
      {"measurement": "CA 15-3", "setting": "[1]; After LC (five months), 60 mg/day, Before LC 237", "value": 86},
      {"measurement": "renal failure and anemia", "setting": "[1]; after treatment, 60 mg/day", "value": "improved"},
      {"measurement": "spleen metastasis on CT scan", "setting": "[1]; after treatment, 60 mg/day", "value": "regressed"},
      {"measurement": "total Body MRI", "setting": "[1]; after treatment, 60 mg/day", "value": "complete liver and spleen response"},
      {"measurement": "primitive breast mass on ultrasound", "setting": "[1]; after treatment, regressed from 5", "value": 3, "unit": "cm"},
      {"measurement": "liver enzymes including LDH", "setting": "[1]; five months after treatment commenced, 60 mg/day", "value": "returned to normal"},
      {"measurement": "LDH level", "setting": "[1]; three days after treatment, 60 mg/day, decrease from 450", "value": 204},
      {"measurement": "LDH", "setting": "[2]; Day 11, 70 mg/day, Day 0 prior to treatment 2560 (nl < 480)", "value": 2264},
      {"measurement": "LDH", "setting": "[2]; Day 30, 70 mg/day", "value": 283},
      {"measurement": "LDH", "setting": "[2]; Day 63, 70 mg/day", "value": 118},
      {"measurement": "Total Bilirubin", "setting": "[2]; Day 63, 70 mg/day, Day 0 prior to treatment 1.9 (nl < 1)", "value": 0.42},
      {"measurement": "LDH", "setting": "[2]; Day 85, 70 mg/day", "value": 230},
      {"measurement": "Total Bilirubin", "setting": "[2]; Day 85, 70 mg/day", "value": 0.37},
      {"measurement": "GGT", "setting": "[2]; during treatment, 70 mg/day", "value": 31},
      {"measurement": "CT scans, masses in the lungs and liver", "setting": "[2]; more than a year after commencement of therapy", "value": "decrease in number and size of previous masses"},
      {"measurement": "PSA", "setting": "[3]; Day 13, 70 mg/day, Day 0 prior to treatment 1958 (nl < 4)", "value": 1590},
      {"measurement": "PSA", "setting": "[3]; Day 15, 70 mg/day", "value": 1142},
      {"measurement": "PSA", "setting": "[3]; Day 67, 70 mg/day", "value": 802},
      {"measurement": "PSA", "setting": "[3]; Day 110, 70 mg/day", "value": 772},
      {"measurement": "Complete Remission", "setting": "[4]", "value": 50, "unit": "%"},
      {"measurement": "Partial Remission", "setting": "[4]", "value": 30, "unit": "%"},
      {"measurement": "Progressive Disease", "setting": "[4]", "value": 0, "unit": "%"},
      {"measurement": "Stable Disease", "setting": "[4]", "value": 20, "unit": "%"},
      {"measurement": "Symptomatic Response", "setting": "[4]", "value": 100, "unit": "%"},
      {"measurement": "Complete Remission", "setting": "[5]", "value": 60, "unit": "%"},
      {"measurement": "Partial Remission", "setting": "[5]", "value": 20, "unit": "%"},
      {"measurement": "Progressive Disease", "setting": "[5]", "value": 0, "unit": "%"},
      {"measurement": "Stable Disease", "setting": "[5]", "value": 20, "unit": "%"},
      {"measurement": "Symptomatic Response", "setting": "[5]", "value": 100, "unit": "%"},
      {"measurement": "chest CT scan, nodule in the right lower lobe", "setting": "[6]; eight months later", "value": 1, "unit": "mm"},
      {"measurement": "chest CT scan", "setting": "[6]; one year after commencing therapy", "value": "normal"},
      {"measurement": "chest CT scan, left lung metastasis", "setting": "[6]; six weeks after start, 1 cm deposit in both lungs before", "value": "disappearance of the left lung metastasis"},
      {"measurement": "lymphocytic proliferation in liver (photomicrographs)", "setting": "experimental lymphoma", "value": "insignificant"},
      {"measurement": "Complete Remission", "setting": "[7]", "value": 80, "unit": "%"},
      {"measurement": "Partial Remission", "setting": "[7]", "value": 10, "unit": "%"},
      {"measurement": "Progressive Disease", "setting": "[7]", "value": 0, "unit": "%"},
      {"measurement": "Stable Disease", "setting": "[7]", "value": 10, "unit": "%"},
      {"measurement": "Symptomatic Response", "setting": "[7]", "value": 100, "unit": "%"},
      {"measurement": "CA 19-9", "setting": "[8]; Day 1, 50 mg/day, Day 0 prior to treatment 884 (nl < 37)", "value": 793},
      {"measurement": "CA 19-9", "setting": "[8]; Day 32, 50 mg/day", "value": 675},
      {"measurement": "CA 19-9", "setting": "[8]; Day 59, 50 mg/day (dose then increased to 60 mg/day)", "value": 1127},
      {"measurement": "CA 19-9", "setting": "[8]; Day 128, 60 mg/day", "value": 545},
      {"measurement": "CT scan of the abdomen, pancreas", "setting": "[8]; Day 200 of therapy, 3 cm tumor in the head of pancreas before", "value": "no masses seen"},
      {"measurement": "Complete Remission", "setting": "[9]", "value": 40, "unit": "%"},
      {"measurement": "Partial Remission", "setting": "[9]", "value": 20, "unit": "%"},
      {"measurement": "Progressive Disease", "setting": "[9]", "value": 10, "unit": "%"},
      {"measurement": "Stable Disease", "setting": "[9]", "value": 30, "unit": "%"},
      {"measurement": "Symptomatic Response", "setting": "[9]", "value": 100, "unit": "%"},
      {"measurement": "survival without recurrence", "setting": "human tumor cell lines; mice that exhibited a complete response", "value": "three month survival without recurrence"},
      {"measurement": "general condition", "setting": "human tumor cell lines; most of the treated mice", "value": "improvement in the general condition"},
      {"measurement": "hematological abnormalities", "setting": "human tumor cell lines; most of the treated mice", "value": "normalization of hematological abnormalities"},
      {"measurement": "time to ascitic regression (rapid response to therapy)", "setting": "human tumor cell lines; most of the treated mice", "value": "1 to 2", "unit": "days"},
      {"measurement": "tumor cells", "setting": "human tumor cell lines; most of the treated mice, associated with an important tumor lysis", "value": "total clearance of tumor cells"}
    ]}
  ]
}
